The source of these data is patent publication US20250339409A1, “USES OF PAN BET INHIBITORS” (VYNE THERAPEUTICS INC., priority 2021, published 2025).

The test system of the test is E-cadherin. Description: RHE vitiligo model: E-cadherin secretion by ELISA. It is filed as cell-based, human. The conditions noted are these: for E-Cad (% stimulated ctl) Mean / E-Cad (% stimulated ctl): TNF-α/IFN-γ stimulated RHE; for E-Cad (% stimulated ctl) Mean / E-Cad (% stimulated ctl) / Mean conc E-Cad / Conc E-Cad: 48 h; for E-Cad (% stimulated ctl) / Conc E-Cad: replicates N1-N3; for Mean conc E-Cad / Conc E-Cad: culture medium of RHE, TNF-α 12 ng/ml/IFN-γ 12 ng/ml; for E-Cadherin secretion: RHE stimulated with TNF-α/IFN-γ. As for the experimental part: […] Three epidermis samples per condition are fixed in 4% formaldehyde solution and embedded in paraffin for further analysis (morphology analysis, melanin and melanocytes localisation/quantification). Three other epidermis samples per condition are put in a specific lysis buffer for total RNA extraction.
At the end of the treatments, culture media is collected (from 3 epidermis per condition), aliquoted and stored at −20° C. until use in ELISA assays. The quantity of MMP-9 secreted by the epidermis at the end of the treatments is analysed using the human MMP-9 Quantikine ELISA kit (Bio-Techne; DMP900). The secretion of E-cadherin in culture media is measured using to human E-cadherin Quantikine ELISA kit (Bio-Techne; DCADE0) dedicated for the measurement of natural human E-cadherin in culture supernates, serum, plasma, urine, and saliva.
The ELISAs are performed following the instructions of the supplier. The quantities of MMP-9 and E-cadherin are determined by comparisons with standard curves performed with recombinant human MMP-9 or E-cadherin provided in the kits.
Quantification of secretion of MMP-9 and E-cadherin by ELISA from collected culture medium was conducted in accordance with Method E. The results, shown in FIG. 5A and FIG. 5B are based on Tables 23 and 24 respectively and presented in percentage of release in comparison to the stimulated control. A statistical analysis (student t-test) was performed to compare the effects of the treatments with the formulations to the vehicle (with $: 0.05>p>0.01; $$: 0.01>p>0.001; and $$$: p<0.001). The same analysis was performed to compare the effects of the vehicle and of the unstimulated control to the stimulated control (with *: 0.05>p>0.01; **: 0.01>p>0.001; and ***: p<0.001). The analysis was performed from three replicates per condition (n=3). The mean of the three values and the standard deviation are presented on the histograms in FIG. 5A and FIG. 5B. As shown in Table 21 and FIG. 5A and consistent with the results of Part A, MMP-9 secretion was increased following the stimulation with the cytokines, which validates the assay.

“And” between values parts separate entries of the source, which are not always exact repeats. Equal entries are not always repeated.

Turning to `Cn1cc(-c2cccc(O)c2Oc2ccccc2)c2cc[nH]c2c1=O` [BETi1], the “E-Cad (% stimulated ctl) Mean” value is, setting by setting: (BETi1 0.001%) 138%; (BETi1 0.01%) 118%; (BETi1 0.1%) 59%; (BETi1 1%) 72%. For the same compound, the “E-Cad (% stimulated ctl)” value is 129% (2×) and 156% (BETi1 0.001%); 117% and 109% and 128% (BETi1 0.01%); 61% and 56% and 62% (BETi1 0.1%); 71% and 72% and 74% (BETi1 1%). The “Mean conc E-Cad” value by setting is: (BETi1 0.001%) 3.2 ng/mL; (BETi1 0.01%) 2.7 ng/mL; (BETi1 0.1%) 1.4 ng/mL; (BETi1 1%) 1.7 ng/mL. Moreover, the “Conc E-Cad” value (BETi1 0.001%) is 3.0 ng/ml (2×) and 3.6 ng/ml; the “Conc E-Cad” value (BETi1 0.01%) was 2.7 ng/mL and 2.5 ng/mL and 2.9 ng/mL; the “Conc E-Cad” value (BETi1 0.1%) was 1.4 ng/ml (2×) and 1.3 ng/ml; the “Conc E-Cad” value (BETi1 1%) was 1.6 ng/ml and 1.7 ng/ml (2×). For the same compound, the E-Cadherin secretion entry (listed as 1% BETi1) was “about 118%” and the E-Cadherin secretion (listed as BETi1 0.1%) was 59%.
